Assay type in all cases: cell-based
Series [1] in a line: Assay 1 intramacrophage Leishmania donovani assay, THP-1 cell count (cytotoxicity readout). To be noted: human, minimum threshold 4.3, read-out: cytotoxicity against THP-1 cells, pEC50 value (converted). The gist of the method: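 THP-1 cells were differentiated with 20 nM PMA for 75 h, infected with amastigotes at MOI 5 for 16 h, then exposed to compound for 96 h in a ten-point 1:3 series from a 50 μM top concentration. Cells were fixed, DAPI/CellMask-stained and imaged by high-content microscopy. pEC50 was derived from amastigotes per cell and from THP-1 count.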

Series [2] deals with Trypanosoma brucei. The series can be described thus: Assay 3 Trypanosoma brucei cell growth inhibition assay. To be noted: T. b. brucei BSF427, 69 h + 4 h resazurin, maximum threshold 8.0, read-out: pEC50 value against Trypanosoma brucei (converted). The method, then:
Measurement of the ability of the compounds to inhibit trypanosome (T. b. brucei, BSF427, VSG118) cell growth was performed using a modification of the cell viability assay previously described by Raz et al. (Raz B.; Iten M.; Grether-Buhler Y.; Kaminski R.; Brun R. The Alamar Blue assay to determine drug sensitivity of African trypanosomes (T. b. rhodesiense and T. b. gambiense) in vitro. Acta Trop. 1997, 68, 139-147). Compounds were dissolved in DMSO at a top concentration of 10 mM and serially diluted in half log steps to achieve a range of final assay concentrations of 50 μM to 0.5 nM. Compound at each concentration (200-fold final) was added to clear 96-well tissue culture plates in a volume of 1 μL. Then 2000 cells per well in relevant growth medium (HMI-9T for T. brucei, a modification of HMI-9 as described by Hurumi et al. (Hirumi H.; Hirumi K. Continuous cultivation of Trypanosoma brucei blood stream forms in a medium containing a low concentration of serum-protein without feeder cell-layers. J. Parasitol. 1989, 75, 985-989.) where 0.2 mM 2-mercaptoethanol was replaced with 0.056 mM thiolglycerol, and MEM with 10% FBS for MRC5) were then added to columns 1-11 of the plates in a volume of 199 μL. To column 12, 200 μL of medium was added to provide a no cells control. Plates were then incubated at 37° C. in an atmosphere of 5% CO2 for 69 h, before the addition of 20 μL of 500 μM rezasurin solution, and a further incubation period of 4 h. Plates were then read on a BioTek flx800 fluorescent plate reader, and percentage inhibition was compared to the maximum and minimum assay controls. Concentration effect curves were fitted using nonlinear regression using XLFit 4.2 and EC50 values determined.

A short description of series [3]: Assay 5 Leishmania donovani intracellular assay, cytotoxicity against THP-1 cells. To be noted: human, total number of THP-1 cells, minimum threshold 4.3, read-out: cytotoxicity against THP-1 cells, pEC50 value (converted). In outline:
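PMA-differentiated THP-1 cells infected overnight with eGFP L. donovani amastigotes (MOI 10), then exposed 96 h at 37 °C to 11-point 1:3 dilutions from 50 μM. After fixation and DAPI staining, high-content imaging scored parasites per cell, % infected cells and total THP-1 count.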

As to `O=C(Nc1ccc(F)c(-c2cn3nc(N4CCOCC4)cnc3n2)c1)N1CCCC1` [Example 1, N-(4-fluoro-3-(2-morpholinoimidazo[1,2-b][1,2,4]triazin-6-yl)phenyl)pyrrolidine-1-carboxamide], the EC50 at 96 h in series [1] and in series [3] was greater than 50.1 µM throughout. Besides, in series [2], the EC50 was less than 0.01 µM.

(Values after US10065965B2, “Imidazo[1,2-B][1,2,4]triazine derivatives as antiparasitic agents” (GlaxoSmithKline Intellectual Property Development Limited, priority 2015, dated 2018).)
